Data taken from patent US12226424B2, “Target protein degradation compounds, their anti-tumor use, their intermediates and use of intermediates” (ShanghaiTech University, priority 2018, dated 2025).

Experiments:
BCR-ABL = BCR-ABL (Homo sapiens, UniProt P00519); assay: Western-blot half-degradation concentration (DC50) / degradation of BCR-ABL in K562 cells; conditions: read-out: DC50 (nM)/K562 cell line, BCR-ABL protein degradation, 24 hours, Western-blot
[1] = tested on: K562 cells (BCR-ABL positive); assay: Half inhibitory concentration (IC50) on tumor cells, CCK-8, K562; conditions: Homo sapiens, K562, 48 h, read-out: IC50 (nM)/K562 cell line
MV-4-11 cells = assay: Half inhibitory concentration (IC50) on BET-expressing tumor cells, CCK-8, MV-4-11; conditions: Homo sapiens, MV4-11, read-out: IC50 (nM)/MV-4-11 cell line, MV-4-11 cells, 48/72 h, CCK-8
MM1S cells = assay: Half inhibitory concentration (IC50) on BET-expressing tumor cells, CCK-8, MM1S; assay type: cell-based; conditions: Homo sapiens, MM1.S, 48/72 h, read-out: IC50 (nM)/MM1S cell line
Procedure: BET-expressing cells MV-4-11 cells (human B granulocytic leukemia cells), MDA-MB-231 cells (human breast cancer cells), MDA-MB-468 cells (human breast cancer cells), MDA-MB-453 Cells (human breast cancer cells), MM1S cells (myeloma (immunoglobulin A lambda), B lymphoblasts) and SR cells (human large cell immunoblast lymphoma) were purchased from the American Type Culture Collection (ATCC).
The cells used in this present disclosure were cultured in a 37° C. incubator containing 5% CO2. The complete cell culture medium was RPMI 1640/IMDM/DMEM medium with 10% fetal bovine serum, and the final concentrations of penicillin and streptomycin were 100 U/mL, respectively. All cells were tested negative for mycoplasma with mycoplasma detection kit before the experiment.
Determination of the Half Inhibitory Concentration (IC50) of PROTAD Compounds on Tumor Cells
MV-411 cells, MM1S cells and SR cells were seeded in 100 μL IMDM/RPMI1640/DMEM complete medium at a density of 15000/10000 cells/well; MDA-MB-231 cells, MDA-MB-468 cells, and MDA-MB453 cells were seeded in 100 μL IMDM/RPMI1640/DMEM complete medium at a density of 3000/5000 cells/well, respectively. 100 μL of the inoculated cells were treated with 0.5 μL diluted PROTAD compounds of the present disclosure to be tested at 10 successively decreasing concentrations (starting at the highest concentration of 10 μM; 5-fold serial dilutions). After the cells were treated with the tested drugs 48/72 h, the cell viability was determined according to the CCK-8 reagent manual. The negative control was DMSO, and the positive control was a commercial inhibitor. After CCK-8 treatment for 2 h, the value of O.D.450 was measured using a microplate reader.

SR cells = assay: Half inhibitory concentration (IC50) on ALK-positive SR cell proliferation (CCK-8); assay type: cell-based; conditions: Homo sapiens; SR cells, 72 h drug treatment, CCK-8; read-out: IC50 (nM)/ SR cell line
Procedure, shortened: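 SR cells seeded at 10,000 cells/well in RPMI1640 and treated with PROTAD compounds at 10 concentrations (top 10 μM, 5-fold dilutions) for 72 h at 37° C, 5% CO2. Viability read by CCK-8 (2 h) at OD450; DMSO as negative control.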

ALK protein = ALK protein (Homo sapiens, UniProt Q9UM73); assay: Western-blot half degradation concentration (DC50) of ALK protein in H3122 cells; assay type: cell-based; conditions: 24 h drug treatment, read-out: DC50 (nM)/ H3122 cell line
Sequence of ALK protein (Q9UM73 with tags, fused parts or gaps): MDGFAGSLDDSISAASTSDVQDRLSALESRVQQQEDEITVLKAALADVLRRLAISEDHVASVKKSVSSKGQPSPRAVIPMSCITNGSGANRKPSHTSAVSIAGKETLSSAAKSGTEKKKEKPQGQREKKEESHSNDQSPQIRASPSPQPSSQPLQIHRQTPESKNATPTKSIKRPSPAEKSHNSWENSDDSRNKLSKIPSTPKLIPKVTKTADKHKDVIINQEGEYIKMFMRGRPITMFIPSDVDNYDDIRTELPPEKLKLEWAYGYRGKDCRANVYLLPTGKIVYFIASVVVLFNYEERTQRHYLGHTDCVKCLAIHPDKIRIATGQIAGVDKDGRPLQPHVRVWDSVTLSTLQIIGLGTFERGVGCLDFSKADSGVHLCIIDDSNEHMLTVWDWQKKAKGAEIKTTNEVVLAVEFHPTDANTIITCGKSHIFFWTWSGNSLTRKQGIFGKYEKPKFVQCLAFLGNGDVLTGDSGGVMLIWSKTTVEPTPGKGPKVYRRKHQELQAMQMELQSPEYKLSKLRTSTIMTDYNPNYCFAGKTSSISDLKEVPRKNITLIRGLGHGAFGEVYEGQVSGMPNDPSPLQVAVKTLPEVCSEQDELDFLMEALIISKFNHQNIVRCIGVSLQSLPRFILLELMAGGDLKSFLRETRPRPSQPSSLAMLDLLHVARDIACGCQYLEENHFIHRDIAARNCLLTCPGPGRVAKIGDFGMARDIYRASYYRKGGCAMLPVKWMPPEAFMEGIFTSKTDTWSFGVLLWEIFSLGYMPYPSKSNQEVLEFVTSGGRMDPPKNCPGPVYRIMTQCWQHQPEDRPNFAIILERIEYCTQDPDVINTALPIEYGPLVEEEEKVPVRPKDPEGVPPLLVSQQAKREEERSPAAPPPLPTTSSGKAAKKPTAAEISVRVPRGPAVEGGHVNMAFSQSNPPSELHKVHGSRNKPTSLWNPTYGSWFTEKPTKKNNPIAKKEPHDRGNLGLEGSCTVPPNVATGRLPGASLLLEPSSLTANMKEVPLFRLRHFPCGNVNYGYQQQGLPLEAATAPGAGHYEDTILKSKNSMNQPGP
Procedure: ALK-positive SR cells (human large cell immunoblastic lymphoma) were purchased from the American Type Culture Collection (ATCC); H3122 cells (human non-small cell lung cancer) were from the Shanghai University of Science and Technology Lin Haifan's research group.
The cells used in this present disclosure were cultured in a 37° C. incubator containing 5% CO2.
DC50 (drug concentration corresponding to protein degradation to 50%) calculation: according to the gray value of the corresponding Western blotting band after drug treatment, fitting the relationship curve between drug concentration and gray value to calculate the drug concentration range corresponding to half of the gray value.

Sequence of BCR-ABL (P00519 with tags, fused parts or gaps): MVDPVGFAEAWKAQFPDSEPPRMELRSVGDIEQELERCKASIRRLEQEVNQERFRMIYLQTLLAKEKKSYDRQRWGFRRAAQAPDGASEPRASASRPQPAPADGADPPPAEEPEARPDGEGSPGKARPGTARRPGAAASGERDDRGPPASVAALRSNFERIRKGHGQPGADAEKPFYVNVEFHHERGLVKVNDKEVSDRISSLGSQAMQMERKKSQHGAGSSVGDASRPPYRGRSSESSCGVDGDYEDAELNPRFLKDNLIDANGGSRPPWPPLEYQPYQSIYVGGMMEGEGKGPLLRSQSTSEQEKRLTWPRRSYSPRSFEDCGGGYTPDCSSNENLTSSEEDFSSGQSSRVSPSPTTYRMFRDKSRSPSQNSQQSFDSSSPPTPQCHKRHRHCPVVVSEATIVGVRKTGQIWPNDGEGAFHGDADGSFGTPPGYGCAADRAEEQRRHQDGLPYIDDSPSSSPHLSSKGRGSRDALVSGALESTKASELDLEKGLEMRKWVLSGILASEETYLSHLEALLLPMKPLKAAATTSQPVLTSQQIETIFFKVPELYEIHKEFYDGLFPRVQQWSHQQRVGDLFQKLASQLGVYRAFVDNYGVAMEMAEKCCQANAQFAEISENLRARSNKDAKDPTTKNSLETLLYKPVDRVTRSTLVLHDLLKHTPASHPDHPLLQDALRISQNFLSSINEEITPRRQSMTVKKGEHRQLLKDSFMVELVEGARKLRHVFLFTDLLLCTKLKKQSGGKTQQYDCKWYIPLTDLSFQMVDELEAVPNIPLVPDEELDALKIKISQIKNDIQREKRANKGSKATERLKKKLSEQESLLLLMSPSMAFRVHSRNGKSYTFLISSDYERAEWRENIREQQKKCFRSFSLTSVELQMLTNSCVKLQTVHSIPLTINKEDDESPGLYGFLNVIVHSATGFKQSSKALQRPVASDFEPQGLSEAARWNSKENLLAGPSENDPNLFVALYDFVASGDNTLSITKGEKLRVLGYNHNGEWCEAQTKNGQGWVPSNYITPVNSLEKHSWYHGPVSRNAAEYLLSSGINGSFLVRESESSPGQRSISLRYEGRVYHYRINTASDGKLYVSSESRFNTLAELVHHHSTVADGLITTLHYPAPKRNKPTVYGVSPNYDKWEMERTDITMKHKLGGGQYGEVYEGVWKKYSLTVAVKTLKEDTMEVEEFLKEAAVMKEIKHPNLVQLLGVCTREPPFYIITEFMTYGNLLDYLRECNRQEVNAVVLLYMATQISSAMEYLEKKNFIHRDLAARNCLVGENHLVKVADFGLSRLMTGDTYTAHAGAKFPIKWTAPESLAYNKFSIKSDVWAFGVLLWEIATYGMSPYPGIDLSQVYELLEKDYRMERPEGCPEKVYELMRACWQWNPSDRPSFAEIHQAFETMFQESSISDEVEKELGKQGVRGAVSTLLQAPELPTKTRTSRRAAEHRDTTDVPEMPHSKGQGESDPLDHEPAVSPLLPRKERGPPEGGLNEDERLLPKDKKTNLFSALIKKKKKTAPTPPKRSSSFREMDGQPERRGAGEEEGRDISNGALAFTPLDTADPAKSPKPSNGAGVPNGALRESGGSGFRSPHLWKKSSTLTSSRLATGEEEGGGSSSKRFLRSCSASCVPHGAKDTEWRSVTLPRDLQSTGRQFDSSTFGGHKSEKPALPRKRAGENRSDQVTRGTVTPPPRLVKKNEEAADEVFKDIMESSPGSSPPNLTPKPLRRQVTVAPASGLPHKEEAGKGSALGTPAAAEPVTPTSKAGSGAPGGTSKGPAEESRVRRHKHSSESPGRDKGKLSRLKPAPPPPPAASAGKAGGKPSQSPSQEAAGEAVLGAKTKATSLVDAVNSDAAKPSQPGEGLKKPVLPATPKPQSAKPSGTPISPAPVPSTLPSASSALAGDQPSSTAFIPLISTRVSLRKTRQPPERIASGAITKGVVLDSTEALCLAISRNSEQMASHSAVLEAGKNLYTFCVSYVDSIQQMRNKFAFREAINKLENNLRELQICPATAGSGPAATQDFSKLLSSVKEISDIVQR

DC50 (BCR-ABL) [nM]	IC50 [1] [nM]	DC50 (ALK protein) [nM]	SMILES	IC50 (SR cells) [nM]	other results
< 1	11.1	–	Cc1nc(Nc2ncc(C(=O)Nc3c(C)cccc3Cl)s2)cc(N2CCN(C(=O)CCSc3cccc4c3C(=O)N(C3CCC(=O)NC3=O)C4=O)CC2)n1 (stereo not drawn) [SIAIS151152, N-(2-chloro-6-methylphenyl)-2-((6-(4-(3-((2-(2,6-dioxopiperidin-3-yl)-1,3-dioxoisoindolin-4-yl)thio)propanoyl)piperazin-1-yl)-2-methylpyrimidin-4-yl)amino)thiazole-5-carboxamide]	–	–
20.7	15	–	Cc1nc(Nc2ncc(C(=O)Nc3c(C)cccc3Cl)s2)cc(N2CCN(C(=O)CCCSc3cccc4c3C(=O)N(C3CCC(=O)NC3=O)C4=O)CC2)n1 (stereo not drawn) [SIAIS151153, N-(2-chloro-6-methylphenyl)-2-((6-(4-(4-((2-(2,6-dioxopiperidin-3-yl)-1,3-dioxoisoindolin-4-yl)thio)butanoyl)piperazin-1-yl)-2-methylpyrimidin-4-yl)amino)thiazole-5-carboxamide]	–	–
2	5.74	–	Cc1nc(Nc2ncc(C(=O)Nc3c(C)cccc3Cl)s2)cc(N2CCN(C(=O)CCCCSc3cccc4c3C(=O)N(C3CCC(=O)NC3=O)C4=O)CC2)n1 (stereo not drawn) [SIAIS151154, N-(2-chloro-6-methylphenyl)-2-((6-(4-(5-((2-(2,6-dioxopiperidin-3-yl)-1,3-dioxoisoindolin-4-yl)thio)pentanoyl)piperazin-1-yl)-2-methylpyrimidin-4-yl)amino)thiazole-5-carboxamide]	–	–
0.8	8.66	–	Cc1nc(Nc2ncc(C(=O)Nc3c(C)cccc3Cl)s2)cc(N2CCN(C(=O)CCCCCSc3cccc4c3C(=O)N(C3CCC(=O)NC3=O)C4=O)CC2)n1 (stereo not drawn) [SIAIS151155, N-(2-chloro-6-methylphenyl)-2-((6-(4-(6-((2-(2,6-dioxopiperidin-3-yl)-1,3-dioxoisoindolin-4-yl)thio)hexanoyl)piperazin-1-yl)-2-methylpyrimidin-4-yl)amino)thiazole-5-carboxamide]	–	–
2.9	6.63	–	Cc1nc(Nc2ncc(C(=O)Nc3c(C)cccc3Cl)s2)cc(N2CCN(C(=O)CCCCCCSc3cccc4c3C(=O)N(C3CCC(=O)NC3=O)C4=O)CC2)n1 (stereo not drawn) [SIAIS151156, N-(2-chloro-6-methylphenyl)-2-((6-(4-(7-((2-(2,6-dioxopiperidin-3-yl)-1,3-dioxoisoindolin-4-yl)thio)heptanoyl)piperazin-1-yl)-2-methylpyrimidin-4-yl)amino)thiazole-5-carboxamide]	–	–
< 1	0.51	–	Cc1nc(Nc2ncc(C(=O)Nc3c(C)cccc3Cl)s2)cc(N2CCN(CCSc3cccc4c3CN(C3CCC(=O)NC3=O)C4=O)CC2)n1 (stereo not drawn) [SIAIS171166, N-(2-chloro-6-methylphenyl)-2-((6-(4-(2-((2-(2,6-dioxopiperidin-3-yl)-1-oxoisoindolin-4-yl)thio)ethyl)piperazin-1-yl)-2-methylpyrimidin-4-yl)amino)thiazole-5-carboxamide]	–	–
–	–	–	Cc1sc2c(c1C)C(c1ccc(Cl)cc1)=N[C@@H](CC(=O)NCCOCCOCCSc1cccc3c1C(=O)N(C1CCC(=O)NC1=O)C3=O)c1nnc(C)n1-2 (stereo partly drawn) [SIAIS213070, 2-((S)-4-(4-chlorophenyl)-2,3,9-trimethyl-6H-thieno[3,2-f][1,2,4]triazolo[4,3-a][1,4]diazepin-6-yl)-N-(2-(2-(2-((2-(2,6-dioxopiperidin-3-yl)-1,3-dioxoisoindolin-4-yl)thio)ethoxy)ethoxy)ethyl)acetamide]	–	IC50 (MV-4-11 cells): 2 ± 0.4 nM; IC50 (MM1S cells): 12.8 nM
–	–	–	Cc1sc2c(c1C)C(c1ccc(Cl)cc1)=N[C@@H](CC(=O)NCCOCCOCCSc1cccc3c1CN(C1CCC(=O)NC1=O)C3=O)c1nnc(C)n1-2 (stereo partly drawn) [SIAIS213072, 2-((S)-4-(4-chlorophenyl)-2,3,9-trimethyl-6H-thieno[3,2-f][1,2,4]triazolo[4,3-a][1,4]diazepin-6-yl)-N-(2-(2-(2-((2-(2,6-dioxopiperidin-3-yl)-1-oxoisoindolin-4-yl)thio)ethoxy)ethoxy)ethyl)acetamide]	–	IC50 (MV-4-11 cells): 0.5 ± 0.1 nM; IC50 (MM1S cells): 3.03 nM
–	–	–	Cc1sc2c(c1C)C(c1ccc(Cl)cc1)=N[C@@H](CC(=O)NCCCCNC(=O)CSc1cccc3c1C(=O)N(C1CCC(=O)NC1=O)C3=O)c1nnc(C)n1-2 (stereo partly drawn) [SIAIS213075, 2-((S)-4-(4-chlorophenyl)-2,3,9-trimethyl-6H-thieno[3,2-f][1,2,4]triazolo[4,3-a][1,4]diazepin-6-yl)-N-(4-(2-((2-(2,6-dioxopiperidin-3-yl)-1,3-dioxoisoindolin-4-yl)thio)acetamido)butyl)acetamide]	–	IC50 (MV-4-11 cells): 6.5 ± 2.5 nM; IC50 (MM1S cells): 96.1 nM
–	–	–	Cc1sc2c(c1C)C(c1ccc(Cl)cc1)=N[C@@H](CC(=O)NCCCCNC(=O)CSc1cccc3c1CN(C1CCC(=O)NC1=O)C3=O)c1nnc(C)n1-2 (stereo partly drawn) [SIAIS213094, 2-((S)-4-(4-chlorophenyl)-2,3,9-trimethyl-6H-thieno[3,2-f][1,2,4]triazolo[4,3-a][1,4]diazepin-6-yl)-N-(4-(2-((2-(2,6-dioxopiperidin-3-yl)-1-oxoisoindolin-4-yl)thio)acetamido)butyl)acetamide]	–	IC50 (MV-4-11 cells): 4.9 ± 0.8 nM; IC50 (MM1S cells): 42.5 nM
–	–	100	COc1cc(N2CCN(C(=O)CSc3cccc4c3C(=O)N(C3CCC(=O)NC3=O)C4=O)CC2)ccc1Nc1ncc(Cl)c(Nc2ccccc2P(C)(C)=O)n1 (stereo not drawn) [SIAIS1197113, 4-((2-(4-(4-((5-chloro-4-((2-(dimethylphosphoryl)phenyl)amino)pyrimidin-2-yl)amino)-3-methoxyphenyl)piperazin-1-yl)-2-oxoethyl)thio)-2-(2,6-dioxopiperidin-3-yl)isoindoline-1,3-dione]	23.6 ± 19.4	–
–	–	500	COc1cc(N2CCN(C(=O)CCSc3cccc4c3C(=O)N(C3CCC(=O)NC3=O)C4=O)CC2)ccc1Nc1ncc(Cl)c(Nc2ccccc2P(C)(C)=O)n1 (stereo not drawn) [SIAIS1197115, 4-((3-(4-(4-((5-chloro-4-((2-(dimethylphosphoryl)phenyl)amino)pyrimidin-2-yl)amino)-3-methoxyphenyl)piperazin-1-yl)-3-oxopropyl)thio)-2-(2,6-dioxopiperidin-3-yl)isoindoline-1,3-dione]	42 ± 29.3	–
–	–	500	COc1cc(N2CCN(C(=O)CCCSc3cccc4c3C(=O)N(C3CCC(=O)NC3=O)C4=O)CC2)ccc1Nc1ncc(Cl)c(Nc2ccccc2P(C)(C)=O)n1 (stereo not drawn) [SIAIS1197117, 4-((4-(4-(4-((5-chloro-4-((2-(dimethylphosphoryl)phenyl)amino)pyrimidin-2-yl)amino)-3-methoxyphenyl)piperazin-1-yl)-4-oxobutyl)thio)-2-(2,6-dioxopiperidin-3-yl)isoindoline-1,3-dione]	16.9 ± 12	–
–	–	500	COc1cc(N2CCN(C(=O)CCCCSc3cccc4c3C(=O)N(C3CCC(=O)NC3=O)C4=O)CC2)ccc1Nc1ncc(Cl)c(Nc2ccccc2P(C)(C)=O)n1 (stereo not drawn) [SIAIS1197119, 4-((5-(4-(4-((5-chloro-4-((2-(dimethylphosphoryl)phenyl)amino)pyrimidin-2-yl)amino)-3-methoxyphenyl)piperazin-1-yl)-5-oxopentyl)thio)-2-(2,6-dioxopiperidin-3-yl)isoindoline-1,3-dione]	13.2 ± 2.6	–
–	–	500	COc1cc(N2CCN(C(=O)CCCCCCSc3cccc4c3C(=O)N(C3CCC(=O)NC3=O)C4=O)CC2)ccc1Nc1ncc(Cl)c(Nc2ccccc2P(C)(C)=O)n1 (stereo not drawn) [SIAIS1197159, 4-((7-(4-(4-((5-chloro-4-((2-(dimethylphosphoryl)phenyl)amino)pyrimidin-2-yl)amino)-3-methoxyphenyl)piperazin-1-yl)-7-oxoheptyl)thio)-2-(2,6-dioxopiperidin-3-yl)isoindoline-1,3-dione]	10 ± 5.7	–
